Publication PMC9101087, “A Sensitive LC-MS/MS Method for the Simultaneous Determination of Two Thia-Analogous Indirubin N-Glycosides and Indirubin-3′-Monoxime in Plasma and Cell Culture Medium” (Molecules, 2022)

Experiment: Quantification of KD87 in plasma of mice after intraperitoneal injection
Type: in vivo
Conditions: male, NSG (NOD.Cg-Prkdc^scid Il2rg^tm1Wjl/SzJ), mouse, ip, 20 mg/kg, 20 mg/kg intraperitoneal, mean ± SD n = 8
Method: To apply the method validated for plasma, an animal experiment was performed in which KD87 (20 mg/kg body weight) was injected intraperitoneally into NOD.Cg-Prkdc^scid Il2rg^tm1Wjl/SzJ (NSG) mice followed by determination of the plasma concentration of KD87 at two fixed time points, i.e., 30 and 60 min, after administration. For this initial investigation, KD87 was selected because it has shown viability-reducing effects on a large panel of tumor cells both in the present study and in a previous study, making it a good candidate for future in vivo experiments.
Before starting plasma extraction and protein precipitation, 10 µL of the sample plasma was mixed with 40 µL of human plasma. After appropriate sample preparation by protein precipitation or liquid-liquid extraction, KD87 was successfully detected and quantified by LC-MS/MS. Here, for each blood draw, two separate plasma aliquots were extracted or precipitated and subsequently measured. In addition, the MRM transitions of the aglycone KD88 were monitored during the measurement to observe possible deglycosylation of KD87. […] Individual concentrations are presented for each mouse separately (Figure 5A,B) and as averages of the four treated mice (Figure 5C). For protein precipitation, a concentration of 1.89 ± 0.30 µM was determined 30 min after intraperitoneal injection, increasing to 2.93 ± 0.36 µM after 60 min (Figure 5C). Similar values are obtained after liquid-liquid extraction of plasma sample, which yielded a concentration of 2.19 ± 0.32 µM and 3.46 ± 0.50 µM after 30 and 60 min, respectively (Figure 5C).
Figure 5 Quantification of KD87 in plasma of mice 30 and 60 min after intraperitoneal injection of KD87 (20 mg/kg body weight). Prior to sample processing, mouse plasma was diluted 1:5 with human plasma. Shown are the individual values of KD87 in mouse plasma (A) after protein precipitation and (B) after liquid-liquid extraction, as well as (C) the average KD87 concentration values of all four mice for both processing methods. (A,B): The values of two separately processed plasma aliquots of one blood sample per mouse are shown. (C): The bar chart summarizes the results of measurements from panels (A,B), expressed as mean ± standard deviation (SD) of n = 8 values per column.
For experiments, four 13-week-old male NSG mice with a body weight between 20 and 30 g were used. KD87 was administered via intraperitoneal injection at a dose of 20 mg/kg body weight. For this purpose, KD87 was dissolved in ethanol and Cremophore EL (1:1) to a concentration of 6 mg/mL, and diluted further in sterile saline solution (NaCl 0.9%, B. Braun Melsungen AG, Melsungen, Germany) to a final concentration of 2 mg/mL. Per mouse, a total volume of 10 mL/kg of body weight was administered. […]

For O=C1/C(=C2/C(=O)N([C@@H]3O[C@H](CO)[C@@H](O)[C@H](O)[C@H]3O)c3ccccc32)Sc2ccccc21 [KD87, 3-[3′-oxo-benzo[b]thiophen-2′-(Z)-ylidene]-1-(β-D-glucopyranosyl)-oxindole], which concentration at 30 min (liquid-liquid extraction) is on record?
Its concentration at 30 min is 2190 ± 320 nM.

And the concentration at 30 min (protein precipitation)?
The concentration at 30 min was 1890 ± 300 nM.

What about the concentration at 60 min (liquid-liquid extraction) of the same molecule?
Its concentration at 60 min is 3460 ± 500 nM.

What about the concentration at 60 min (protein precipitation) of the same molecule?
The concentration at 60 min was 2930 ± 360 nM.
